Data published in ChEMBL document CHEMBL1138057, “Synthesis and structure-activity relationships of N-{3-[2-(4-alkoxyphenoxy)thiazol-5-yl]-1- methylprop-2-ynyl}carboxy derivatives as selective acetyl-CoA carboxylase 2 inhibitors” (J Med Chem, 2006).
Calls of active or inactive are those of the source. No cut-off for these calls is given here.

How the values were obtained:
Acetyl-CoA carboxylase 1 = Acetyl-CoA carboxylase 1 (Homo sapiens, UniProt Q13085); assay: Inhibition of human recombinant ACC1 expressed in HEK293 cells; assay type: cell-based
Acetyl-CoA carboxylase 2 = Acetyl-CoA carboxylase 2 (Homo sapiens, UniProt O00763); assay: Inhibition of human recombinant ACC2 expressed in baculovirus/sf9 system
Sequence of Acetyl-CoA carboxylase 2 (O00763 whole entry): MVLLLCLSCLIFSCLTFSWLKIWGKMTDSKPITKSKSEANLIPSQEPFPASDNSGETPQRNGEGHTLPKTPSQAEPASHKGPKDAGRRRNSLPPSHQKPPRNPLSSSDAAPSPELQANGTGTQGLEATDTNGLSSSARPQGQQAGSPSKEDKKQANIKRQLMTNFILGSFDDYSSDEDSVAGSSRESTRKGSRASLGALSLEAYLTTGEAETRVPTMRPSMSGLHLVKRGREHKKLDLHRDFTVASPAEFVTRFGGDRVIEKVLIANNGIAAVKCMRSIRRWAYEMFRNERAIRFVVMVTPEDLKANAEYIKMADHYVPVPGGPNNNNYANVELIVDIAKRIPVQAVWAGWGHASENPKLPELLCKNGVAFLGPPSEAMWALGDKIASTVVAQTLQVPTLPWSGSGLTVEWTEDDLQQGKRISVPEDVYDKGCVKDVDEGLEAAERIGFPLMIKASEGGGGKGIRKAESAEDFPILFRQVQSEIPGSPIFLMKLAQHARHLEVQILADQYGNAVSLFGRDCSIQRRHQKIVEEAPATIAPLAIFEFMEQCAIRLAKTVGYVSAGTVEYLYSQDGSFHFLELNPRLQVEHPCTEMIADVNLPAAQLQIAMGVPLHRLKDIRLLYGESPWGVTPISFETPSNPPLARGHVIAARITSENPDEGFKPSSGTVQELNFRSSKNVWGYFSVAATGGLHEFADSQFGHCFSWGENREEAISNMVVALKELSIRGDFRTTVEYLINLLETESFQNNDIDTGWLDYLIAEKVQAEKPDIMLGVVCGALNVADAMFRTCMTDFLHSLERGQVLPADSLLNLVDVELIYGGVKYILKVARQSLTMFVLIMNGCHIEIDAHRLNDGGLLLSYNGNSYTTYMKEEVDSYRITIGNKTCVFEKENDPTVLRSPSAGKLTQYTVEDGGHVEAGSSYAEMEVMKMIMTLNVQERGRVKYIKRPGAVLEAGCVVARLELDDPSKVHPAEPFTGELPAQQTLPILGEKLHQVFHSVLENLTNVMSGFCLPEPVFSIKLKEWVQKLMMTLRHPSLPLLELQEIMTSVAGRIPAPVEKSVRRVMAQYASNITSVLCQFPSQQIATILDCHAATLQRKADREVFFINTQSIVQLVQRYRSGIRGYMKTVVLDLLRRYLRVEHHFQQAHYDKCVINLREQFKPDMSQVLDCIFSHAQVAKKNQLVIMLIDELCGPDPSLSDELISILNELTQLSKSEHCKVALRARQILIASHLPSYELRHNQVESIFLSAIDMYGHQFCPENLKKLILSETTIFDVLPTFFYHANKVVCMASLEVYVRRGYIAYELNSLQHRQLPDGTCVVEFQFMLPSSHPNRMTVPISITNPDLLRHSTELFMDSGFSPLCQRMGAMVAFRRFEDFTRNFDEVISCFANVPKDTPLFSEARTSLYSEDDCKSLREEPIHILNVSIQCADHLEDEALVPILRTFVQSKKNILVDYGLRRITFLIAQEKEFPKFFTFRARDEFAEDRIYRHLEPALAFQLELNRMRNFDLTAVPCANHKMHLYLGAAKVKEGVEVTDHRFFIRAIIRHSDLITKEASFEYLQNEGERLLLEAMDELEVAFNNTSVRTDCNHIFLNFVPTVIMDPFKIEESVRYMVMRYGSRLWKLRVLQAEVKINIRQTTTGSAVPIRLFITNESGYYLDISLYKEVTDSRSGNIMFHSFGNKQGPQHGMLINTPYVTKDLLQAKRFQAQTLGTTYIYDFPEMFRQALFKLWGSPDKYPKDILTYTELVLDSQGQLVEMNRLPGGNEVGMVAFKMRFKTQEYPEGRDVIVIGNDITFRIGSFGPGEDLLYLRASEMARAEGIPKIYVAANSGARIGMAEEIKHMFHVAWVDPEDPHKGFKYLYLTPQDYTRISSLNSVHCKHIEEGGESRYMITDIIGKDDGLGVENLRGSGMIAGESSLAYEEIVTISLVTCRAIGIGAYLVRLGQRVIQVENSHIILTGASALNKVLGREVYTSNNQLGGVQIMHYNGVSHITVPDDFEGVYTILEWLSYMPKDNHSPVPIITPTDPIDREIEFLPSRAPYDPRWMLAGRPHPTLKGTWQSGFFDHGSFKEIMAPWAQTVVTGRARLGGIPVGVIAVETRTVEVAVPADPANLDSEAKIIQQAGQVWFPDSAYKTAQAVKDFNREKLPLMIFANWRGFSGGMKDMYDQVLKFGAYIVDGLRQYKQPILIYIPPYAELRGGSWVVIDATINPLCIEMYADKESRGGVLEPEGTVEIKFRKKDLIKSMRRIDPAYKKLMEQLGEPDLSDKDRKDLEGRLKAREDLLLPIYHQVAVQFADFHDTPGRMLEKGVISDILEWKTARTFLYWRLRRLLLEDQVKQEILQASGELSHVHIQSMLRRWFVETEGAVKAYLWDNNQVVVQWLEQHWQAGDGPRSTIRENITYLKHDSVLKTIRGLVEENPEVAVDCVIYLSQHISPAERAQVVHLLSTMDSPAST

[1] = Plasma clearance in rat at 5 mg/kg; assay type: ADME, organism-based; set-up: dose 5 mg/kg
[2] = Half life in rat at 5 mg/kg, po; assay type: ADME, organism-based; set-up: dose 5 mg/kg, route oral; conditions: in vivo
[3] = Volume of distribution in rat at 5 mg/kg; assay type: ADME, organism-based; set-up: dose 5 mg/kg; conditions: in vivo, read-out: Vss
[4] = AUC in rat at 5 mg/kg, po; assay type: ADME, organism-based; set-up: dose 5 mg/kg, route oral; conditions: plasma
[5] = Tmax in rat at 5 mg/kg; assay type: ADME, organism-based; set-up: dose 5 mg/kg; conditions: in vivo
[6] = Cmax in rat at 5 mg/kg; assay type: ADME, organism-based; set-up: dose 5 mg/kg; conditions: in vivo
[7] = Bioavailability in rat at 5 mg/kg; assay type: ADME, organism-based; conditions: in vivo
Rattus norvegicus [8] = assay: Drug concentration in Sprague-Dawley rat plasma at 10 mg/kg; assay type: ADME, organism-based; set-up: dose 10 mg/kg; conditions: in vivo
Rattus norvegicus [9] = assay: Reduction of mCoA level in Sprague-Dawley rat liver at 50 mg/kg, po; assay type: functional; set-up: scale not given: the % may be the effect or the level left
Rattus norvegicus [10] = assay: Reduction of mCoA level in Sprague-Dawley rat muscle at 10 mg/kg, po; assay type: functional, Muscle tissue; set-up: scale not given: the % may be the effect or the level left
Rattus norvegicus [11] = assay: Drug concentration in Sprague-Dawley rat plasma at 50 mg/kg; assay type: ADME, organism-based; set-up: dose 50 mg/kg; conditions: in vivo
Rattus norvegicus [12] = assay: Reduction of mCoA level in Sprague-Dawley rat muscle at 50 mg/kg, po; assay type: functional, Muscle tissue; set-up: scale not given: the % may be the effect or the level left
Rattus norvegicus [13] = assay: Reduction of mCoA level in Sprague-Dawley rat liver at 10 mg/kg, po; assay type: functional, organism-based; set-up: dose 10 mg/kg

SMILES	IC50 (Acetyl-CoA carboxylase 1) [nM]	IC50 (Acetyl-CoA carboxylase 2) [nM]	further results
CC(C#Cc1cnc(Oc2ccc(Oc3ccccc3)cc2)s1)N(O)C(N)=O (stereo not drawn)	1000	80	–
CNC(=O)NC(C)C#Cc1cnc(Oc2ccc(OC(C)C)cc2)s1 (stereo not drawn)	> 30000	30	–
CC(=O)NC(C#Cc1cnc(Oc2ccc(OC(C)C)cc2)s1)C1CC1 (stereo not drawn)	> 30000	840	–
CC(O)C#Cc1cnc(Oc2ccc(Oc3ccccc3)cc2)s1 (stereo not drawn)	> 30000	600	–
CC(=O)NC(C)C#Cc1cnc(Oc2ccc(OC(C)C)nc2)s1 (stereo not drawn)	390	15	–
COC(=O)NC(C)C#Cc1cnc(Oc2ccc(OC(C)C)cc2)s1 (stereo not drawn)	> 30000	96	clearance [1]: 3.33 mL/min/kg; half-life [2]: > 12 h; Vd [3]: 5 L/kg; AUC [4]: 18900 ng·h/mL; Tmax [5]: 2 h; Cmax [6]: 900 ng/mL; bioavailability [7]: 80.4%
CC(=O)NC(C)C#Cc1cnc(Oc2ccc(Oc3ccccc3)cc2)s1 (stereo not drawn)	260	11	–
CC(=O)NC(C)C#Cc1cnc(Oc2ccc(OC(C)C)cc2)s1 (stereo not drawn)	> 30000	19	–
CC(C#Cc1cnc(Oc2ccc(Oc3ccccc3)cc2)s1)NC(N)=O (stereo not drawn)	> 30000	26	–
CC(=O)NC(C)C#Cc1cnc(Oc2ccc(C(C)C)cc2)s1 (stereo not drawn)	1250	> 30000	–
CC(=O)NC(C)C#Cc1cnc(Oc2ccc(SC(C)C)cc2)s1 (stereo not drawn)	370	55	–
CC(=O)NC(C)C#Cc1ccc(Oc2ccc(OC(C)C)cc2)cc1 (stereo not drawn)	29	6	–
COC(=O)N[C@@H](C)C#Cc1cnc(Oc2ccc(OC(C)C)cc2)s1	> 30000	38	Cp (Rattus norvegicus [8]): 1540 ng/mL; Activity (Rattus norvegicus [9]): 26%; Activity (Rattus norvegicus [10]): 36%; Cp (Rattus norvegicus [11]): 4900 ng/mL; Activity (Rattus norvegicus [12]): 54%
O=C(c1c2ccccc2cc2ccccc12)N1CCC(N2CCC[C@@H](C(=O)N3CCOCC3)C2)CC1	410	38	–
CC(=O)NC(C)C#Cc1cnc(Sc2ccc(OC(C)C)cc2)s1 (stereo not drawn)	> 30000	69	–
CC(N)C#Cc1cnc(Oc2ccc(Oc3ccccc3)cc2)s1 (stereo not drawn)	> 30000	2420	–
COC(=O)N[C@H](C)C#Cc1cnc(Oc2ccc(OC(C)C)cc2)s1	> 30000	1510	Cp (Rattus norvegicus [8]): 1330 ng/mL; Activity (Rattus norvegicus [9]): inactive; Activity (Rattus norvegicus [10]; Muscle tissue): inactive; Cp (Rattus norvegicus [11]): 5330 ng/mL; Activity (Rattus norvegicus [12]; Muscle tissue): inactive; Activity (Rattus norvegicus [13]): inactive
CC(=O)NC(C)C#Cc1cnc(Oc2ccc(NC(C)C)cc2)s1 (stereo not drawn)	> 30000	150	–
CC(=O)NC(C)C#Cc1csc(Oc2ccc(OC(C)C)cc2)n1 (stereo not drawn)	> 30000	> 30000	–
CC(=O)NCC#Cc1cnc(Oc2ccc(OC(C)C)cc2)s1	> 30000	1730	–
